Laboratory results published in PMC1459931, “Assessment of Xenoestrogens Using Three Distinct Estrogen Receptors and the Zebrafish Brain Aromatase Gene in a Highly Responsive Glial Cell System” (Environmental Health Perspectives, 2005).

Key:
Assay in all cases: luciferase reporter transactivation (zebrafish Aro-B promoter) in transfected U251-MG cells
Assay type in all cases: cell-based
Conditions in all cases: agonist; 48 hr, 37°C, 2% charcoal/dextran FCS
zfER-α (zebrafish ER-α) = target: T1, zfER-α (zebrafish ER-α) (Danio rerio, UniProt P57717)
T1 construct: gene esr1; coding region of receptor cDNA in Topo-pcDNA3 (Menuet et al. 2002), transiently expressed in human U251-MG glial cells; approx. 65 kDa in vitro translated
T1 sequence (P57717 1-569): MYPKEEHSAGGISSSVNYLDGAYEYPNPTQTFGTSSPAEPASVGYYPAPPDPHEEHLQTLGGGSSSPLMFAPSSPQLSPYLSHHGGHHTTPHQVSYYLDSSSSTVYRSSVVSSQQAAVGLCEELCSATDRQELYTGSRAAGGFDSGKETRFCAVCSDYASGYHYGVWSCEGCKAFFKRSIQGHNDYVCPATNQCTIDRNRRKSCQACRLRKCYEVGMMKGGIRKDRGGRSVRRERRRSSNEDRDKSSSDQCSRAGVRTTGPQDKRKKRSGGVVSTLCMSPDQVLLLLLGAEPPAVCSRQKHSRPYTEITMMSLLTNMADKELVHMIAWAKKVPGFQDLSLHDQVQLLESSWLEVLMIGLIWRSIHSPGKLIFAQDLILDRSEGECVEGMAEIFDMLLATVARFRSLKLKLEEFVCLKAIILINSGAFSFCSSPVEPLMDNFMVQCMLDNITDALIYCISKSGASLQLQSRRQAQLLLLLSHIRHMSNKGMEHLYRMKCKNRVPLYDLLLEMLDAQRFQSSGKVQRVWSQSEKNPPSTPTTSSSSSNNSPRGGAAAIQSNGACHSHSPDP
Description: luciferase reporter transactivation (zebrafish Aro-B promoter) in transfected U251-MG cells on zfER-α (zebrafish ER-α)

[1] = target: T2, zfER-β2 (zebrafish ER-β2) (Danio rerio, UniProt Q7ZU32)
T2 construct: gene esr2a; coding region of receptor cDNA in Topo-pcDNA3 (Menuet et al. 2002), transiently expressed in human U251-MG glial cells; approx. 65 kDa; ER-β2 of Menuet et al. corresponds to esr2a (esr2b is ER-β1)
Description: luciferase reporter transactivation (zebrafish Aro-B promoter) in transfected U251-MG cells on zfER-β2 (zebrafish ER-β2)

[2] = target: T3, zfER-β1 (zebrafish ER-β1) (Danio rerio, UniProt Q5PR29)
T3 construct: gene esr2b; coding region of receptor cDNA in Topo-pcDNA3 (Menuet et al. 2002), transiently expressed in human U251-MG glial cells; approx. 65 kDa; ER-β1 of Menuet et al. corresponds to esr2b (esr2a is ER-β2)
T3 sequence (Q5PR29 1-592): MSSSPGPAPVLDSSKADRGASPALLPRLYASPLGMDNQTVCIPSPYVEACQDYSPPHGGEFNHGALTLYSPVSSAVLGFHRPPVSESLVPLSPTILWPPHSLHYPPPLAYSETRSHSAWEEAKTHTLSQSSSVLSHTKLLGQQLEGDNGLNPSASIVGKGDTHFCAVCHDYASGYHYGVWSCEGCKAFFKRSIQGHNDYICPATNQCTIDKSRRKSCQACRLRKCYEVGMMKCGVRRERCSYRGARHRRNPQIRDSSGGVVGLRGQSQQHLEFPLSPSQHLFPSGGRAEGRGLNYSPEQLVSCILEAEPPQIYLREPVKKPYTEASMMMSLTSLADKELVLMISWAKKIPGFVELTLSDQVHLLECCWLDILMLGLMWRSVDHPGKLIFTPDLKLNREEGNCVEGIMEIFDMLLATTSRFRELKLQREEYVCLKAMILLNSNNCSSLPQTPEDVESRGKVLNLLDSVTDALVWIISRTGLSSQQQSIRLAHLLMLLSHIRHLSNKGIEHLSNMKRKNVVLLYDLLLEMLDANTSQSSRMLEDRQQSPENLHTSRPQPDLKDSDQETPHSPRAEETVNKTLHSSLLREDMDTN
Description: luciferase reporter transactivation (zebrafish Aro-B promoter) in transfected U251-MG cells on zfER-β1 (zebrafish ER-β1)

T2 sequence (Q7ZU32 1-553): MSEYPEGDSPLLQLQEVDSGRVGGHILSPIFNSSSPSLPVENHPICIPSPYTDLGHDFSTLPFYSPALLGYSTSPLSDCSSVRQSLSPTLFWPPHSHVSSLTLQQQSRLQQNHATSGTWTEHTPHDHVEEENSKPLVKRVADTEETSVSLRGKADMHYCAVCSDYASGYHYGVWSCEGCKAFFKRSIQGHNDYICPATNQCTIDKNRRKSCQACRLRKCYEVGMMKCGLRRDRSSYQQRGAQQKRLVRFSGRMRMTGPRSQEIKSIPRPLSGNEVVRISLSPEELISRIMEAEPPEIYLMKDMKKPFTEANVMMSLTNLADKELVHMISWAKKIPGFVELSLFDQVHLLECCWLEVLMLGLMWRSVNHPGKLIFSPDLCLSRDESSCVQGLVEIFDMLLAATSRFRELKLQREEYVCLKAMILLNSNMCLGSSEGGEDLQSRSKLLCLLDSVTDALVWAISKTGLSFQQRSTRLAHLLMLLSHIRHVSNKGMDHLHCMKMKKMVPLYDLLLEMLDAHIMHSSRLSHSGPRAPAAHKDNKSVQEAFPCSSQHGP

SMILES: C[C@H]1CCC[C@H](O)CCC/C=C/c2cc(O)cc(O)c2C(=O)O1 [α-Zeralenol]
- EC50 (zfER-α (zebrafish ER-α)): 0.59 nM
- EC50 [1]: 0.15 nM
- EC50 [2]: 0.11 nM
